Test results published in ChEMBL document CHEMBL1132262, “Estrogen receptor subtype-selective ligands: asymmetric synthesis and biological evaluation of cis- and trans-5,11-dialkyl- 5,6,11, 12-tetrahydrochrysenes” (J Med Chem, 1999).

Target: Estrogen receptor beta (Homo sapiens) (UniProt Q92731)
Assay: Binding affinity for human ER(estrogen receptor)beta

Sequence of Estrogen receptor beta (Homo sapiens) (Q92731 whole entry): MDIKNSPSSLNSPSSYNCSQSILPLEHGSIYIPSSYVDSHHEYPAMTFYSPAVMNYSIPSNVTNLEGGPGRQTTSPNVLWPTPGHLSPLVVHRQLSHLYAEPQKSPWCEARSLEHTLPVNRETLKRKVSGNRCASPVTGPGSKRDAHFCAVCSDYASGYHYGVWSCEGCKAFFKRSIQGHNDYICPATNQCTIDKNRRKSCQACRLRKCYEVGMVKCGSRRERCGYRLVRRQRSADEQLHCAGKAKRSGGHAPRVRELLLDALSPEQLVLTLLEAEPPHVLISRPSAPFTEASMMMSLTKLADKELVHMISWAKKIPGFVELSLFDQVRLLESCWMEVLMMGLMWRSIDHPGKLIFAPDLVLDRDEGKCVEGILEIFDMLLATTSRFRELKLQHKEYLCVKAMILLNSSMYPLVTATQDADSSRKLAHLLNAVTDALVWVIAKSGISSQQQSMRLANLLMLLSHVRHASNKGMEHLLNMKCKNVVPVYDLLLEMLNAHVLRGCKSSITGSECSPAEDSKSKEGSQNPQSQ

| SMILES | Relative binding affinity |
| --- | --- |
| CCC[C@H]1Cc2cc(O)ccc2C2=C1c1ccc(O)cc1C[C@@H]2CCC | 5.1 |
| Oc1ccc2c(c1)CCC1=C2CCc2cc(O)ccc21 | 6.5 |
| CC1Cc2cc(O)ccc2C2=C1c1ccc(O)cc1C[C@@H]2C (single isomer, unassigned) | 75 |
| CC1Cc2cc(O)ccc2C2=C1c1ccc(O)cc1C[C@H]2C (single isomer, unassigned) | 76 |
| CCC[C@@H]1Cc2cc(O)ccc2C2=C1c1ccc(O)cc1C[C@H]2CCC | 26 |
| CCCC1Cc2cc(O)ccc2C2=C1c1ccc(O)cc1CC2CCC (stereo not drawn) | 92.3 |
| C[C@]12CC[C@@H]3c4ccc(O)cc4CC[C@H]3[C@@H]1CC[C@@H]2O | 100 |
| C[C@@H]1Cc2cc(O)ccc2C2=C1c1ccc(O)cc1C[C@@H]2C | 254 |
